{"source": "ChEMBL document CHEMBL3813691", "about": "“Quantitative relationships between structure and cytotoxic activity of flavonoid derivatives. An application of Hirshfeld surface derived descriptors” (Bioorg Med Chem Lett, 2016)", "data": [{"tested_on": "not listed separately", "experiment": "Cytotoxicity against human HL60 cells assessed as reduction in cell survival after 46 hrs by MTT assay", "type": "functional, cell-based", "settings": "HL-60, 46 h", "units": {"IC50": "µM"}, "values": [{"smiles": "O=C1/C(=C\\c2ccccc2)C(c2ccccc2)Oc2ccccc21", "note": "(stereo not drawn)", "IC50": 33.3}, {"smiles": "Cc1ccc(C2C3C(=NN2C)c2ccccc2OC3c2ccccc2)cc1", "note": "(stereo not drawn)", "IC50": 27.8}, {"smiles": "CN1N=C2c3cc(O)ccc3OC(c3ccccc3)C2C1c1ccccc1", "note": "(stereo not drawn)", "IC50": 37.7}, {"smiles": "Oc1cccc(C2NN=C3c4ccccc4OC(c4ccccc4)C32)c1", "note": "(stereo not drawn)", "IC50": 50}, {"smiles": "O=C1c2ccccc2OC(c2ccccc2)C12N=NCC2c1ccc([N+](=O)[O-])cc1", "note": "(stereo not drawn)", "IC50": 54.6}, {"smiles": "CN1N=C2c3ccccc3OC(c3ccccc3)C2C1c1ccc(Cl)cc1", "note": "(stereo not drawn)", "IC50": 7.4}, {"smiles": "COc1ccc(C2C3C(=NN2C)c2ccccc2OC3c2ccccc2)cc1", "note": "(stereo not drawn)", "IC50": 541}, {"smiles": "Oc1ccc(C2NN=C3c4ccccc4OC(c4ccccc4)C32)cc1", "note": "(stereo not drawn)", "IC50": 42}, {"smiles": "CN1N=C2c3ccccc3OC(c3ccccc3)C2C1c1cccc(C#N)c1", "note": "(stereo not drawn)", "IC50": 65.4}, {"smiles": "CN1N=C2c3ccccc3OC(c3ccccc3)C2C1c1ccc(F)cc1", "note": "(stereo not drawn)", "IC50": 97.7}, {"smiles": "CN1N=C2c3ccccc3OC(c3ccccc3)C2C1c1ccc(O)cc1", "note": "(stereo not drawn)", "IC50": 47.7}, {"smiles": "c1ccc(C2Oc3ccccc3C3=NNC(c4ccncc4)C32)cc1", "note": "(stereo not drawn)", "IC50": 49.7}, {"smiles": "CN1N=C2c3ccccc3OC(c3ccccc3)C2C1c1ccc(Br)cc1", "note": "(stereo not drawn)", "IC50": 7.5}, {"smiles": "COc1cccc(C2C3C(=NN2C)c2ccccc2OC3c2ccccc2)c1", "note": "(stereo not drawn)", "IC50": 70.3}, {"smiles": "N#Cc1cccc(C2CN=NC23C(=O)c2ccccc2OC3c2ccccc2)c1", "note": "(stereo not drawn)", "IC50": 75}, {"smiles": "Oc1ccc2c(c1)C1=NNC(c3ccccc3)C1C(c1ccccc1)O2", "note": "(stereo not drawn)", "IC50": 27.3}, {"smiles": "CN1N=C2c3ccccc3OC(c3ccccc3)C2C1c1ccc(C#N)cc1", "note": "(stereo not drawn)", "IC50": 20.1}, {"smiles": "Cc1cccc(C2C3C(=NN2C)c2ccccc2OC3c2ccccc2)c1", "note": "(stereo not drawn)", "IC50": 60.5}, {"smiles": "CN1N=C2c3ccccc3OC(c3ccccc3)C2C1c1ccccc1", "note": "(stereo not drawn)", "IC50": 54.1}, {"smiles": "CN1N=C2c3ccccc3OC(c3ccccc3)C2C1c1cccc(O)c1", "note": "(stereo not drawn)", "IC50": 344}, {"smiles": "COc1cccc(C2CN=NC23C(=O)c2ccccc2OC3c2ccccc2)c1", "note": "(stereo not drawn)", "IC50": 74.9}]}, {"tested_on": "HUVEC", "experiment": "Cytotoxicity against HUVEC assessed as reduction in cell survival after 46 hrs by MTT assay", "type": "cell-based", "settings": "Homo sapiens", "units": {"IC50": "µM"}, "values": [{"smiles": "O=C(/C=C/c1ccccc1Cl)c1ccccc1O", "IC50": 7.8}, {"smiles": "O=C1/C(=C/c2ccc(Cl)cc2)C(c2ccccc2)Oc2ccccc21", "note": "(stereo not drawn)", "IC50": 6.9}, {"smiles": "CN1N=C2c3ccccc3OC(c3ccccc3)C2C1c1ccc(Cl)cc1", "note": "(stereo not drawn)", "IC50": 70.9}, {"smiles": "CN1N=C2c3ccccc3OC(c3ccccc3)C2C1c1ccc(Br)cc1", "note": "(stereo not drawn)", "IC50": 184}]}, {"tested_on": "not listed separately", "experiment": "Selectivity ratio of IC50 for HUVEC to IC50 for human HL60 cells", "type": "cell-based, HL-60", "settings": "HUVEC and HL60 cells, read-out: Ratio IC50", "values": [{"smiles": "CN1N=C2c3ccccc3OC(c3ccccc3)C2C1c1ccc(Cl)cc1", "note": "(stereo not drawn)", "selectivity ratio": 10}, {"smiles": "CN1N=C2c3ccccc3OC(c3ccccc3)C2C1c1ccc(Br)cc1", "note": "(stereo not drawn)", "selectivity ratio": 25}]}, {"tested_on": "not listed separately", "experiment": "Cytotoxicity against human HL60 cells assessed as reduction in cell survival", "type": "functional, cell-based", "settings": "HL-60", "units": {"IC50": "µM"}, "values": [{"smiles": "COc1cc([C@@H]2c3cc4c(cc3[C@@H](O[C@@H]3O[C@@H]5CO[C@@H](C)O[C@H]5[C@H](O)[C@H]3O)[C@H]3COC(=O)[C@H]23)OCO4)cc(OC)c1O", "note": "[ETOPOSIDE]", "IC50": 0.025}]}]}
